Measurements taken from the NIST ThermoML archive (doi:10.1016/j.tca.2008.09.006).
± gives the expanded uncertainty stated by the source.

Test: xn = mol fraction of the nth substance listed
Settings: 303.15 K, 101 kPa, Liquid; for viscosity: Capillary tube (Ostwald / Ubbelohde) method; for mass density: Vibrating tube method

C1CCCCC1 [cyclohexane] + CCCCN(CCCC)CCCC
x2 = 0
Settings	mass density [kg/m3]	viscosity [mPa·s]
–	769.16 ± 0.12	0.819 ± 0.006

C1CCCCC1 [cyclohexane] + CCCO
Settings	mass density [kg/m3]	viscosity [mPa·s]
x2 = 0	769.16 ± 0.12	0.819 ± 0.006
x2 = 0.1021	769.52 ± 0.12	0.832 ± 0.006
x2 = 0.2112	770.68 ± 0.13	0.872 ± 0.006
x2 = 0.3122	772.37 ± 0.13	0.922 ± 0.007
x2 = 0.4211	774.63 ± 0.13	0.986 ± 0.007
x2 = 0.5151	776.9 ± 0.13	1.053 ± 0.007
x2 = 0.6203	779.94 ± 0.13	1.148 ± 0.008
x2 = 0.7208	783.15 ± 0.14	1.264 ± 0.008
x2 = 0.8143	786.73 ± 0.14	1.398 ± 0.009
x2 = 0.9079	790.83 ± 0.14	1.555 ± 0.01

C1CCCCC1 [cyclohexane] + CCN(CC)CC
x2 = 0
Settings	mass density [kg/m3]	viscosity [mPa·s]
–	769.16 ± 0.12	0.819 ± 0.006

CCCO [propan-1-ol] + C1CCCCC1
x1 = 1
Settings	mass density [kg/m3]	viscosity [mPa·s]
–	795.66 ± 0.14	1.727 ± 0.011

CCCO [propan-1-ol] + CCCCN(CCCC)CCCC
x2 = 0
Settings	mass density [kg/m3]	viscosity [mPa·s]
–	795.66 ± 0.14	1.727 ± 0.011

CCCO [propan-1-ol] + CCN(CC)CC
x2 = 0
Settings	mass density [kg/m3]	viscosity [mPa·s]
–	795.66 ± 0.14	1.727 ± 0.011

CCCCN(CCCC)CCCC [tributylamine] + C1CCCCC1
Settings	mass density [kg/m3]	viscosity [mPa·s]
x1 = 0.1023	768.32 ± 0.13	0.848 ± 0.006
x1 = 0.2014	768.09 ± 0.13	0.878 ± 0.007
x1 = 0.3008	768.17 ± 0.13	0.914 ± 0.007
x1 = 0.4016	768.42 ± 0.13	0.947 ± 0.007
x1 = 0.5002	768.78 ± 0.13	0.985 ± 0.007
x1 = 0.6018	769.15 ± 0.14	1.025 ± 0.007
x1 = 0.7021	769.57 ± 0.14	1.058 ± 0.007
x1 = 0.8012	769.85 ± 0.14	1.096 ± 0.008
x1 = 0.9024	770.12 ± 0.15	1.13 ± 0.008
x1 = 1	770.39 ± 0.15	1.167 ± 0.008

CCCCN(CCCC)CCCC [tributylamine] + CCCO
Settings	mass density [kg/m3]	viscosity [mPa·s]
x1 = 0.0986	791.71 ± 0.14	1.695 ± 0.011
x1 = 0.1991	788.31 ± 0.15	1.66 ± 0.011
x1 = 0.2978	785.47 ± 0.15	1.619 ± 0.01
x1 = 0.4984	780.18 ± 0.15	1.514 ± 0.01
x1 = 0.5992	777.82 ± 0.15	1.449 ± 0.01
x1 = 0.6031	777.75 ± 0.15	1.445 ± 0.01
x1 = 0.6981	775.71 ± 0.15	1.378 ± 0.009
x1 = 0.7989	773.78 ± 0.15	1.302 ± 0.009
x1 = 0.8988	771.94 ± 0.15	1.233 ± 0.008
x1 = 1	770.39 ± 0.15	1.167 ± 0.008

CCN(CC)CC [triethylamine] + C1CCCCC1
Settings	mass density [kg/m3]	viscosity [mPa·s]
x1 = 0.0995	761.78 ± 0.13	0.697 ± 0.006
x1 = 0.1947	755.57 ± 0.13	0.614 ± 0.006
x1 = 0.291	749.84 ± 0.14	0.548 ± 0.005
x1 = 0.3963	744.18 ± 0.14	0.495 ± 0.005
x1 = 0.4999	739.03 ± 0.14	0.453 ± 0.005
x1 = 0.5961	734.6 ± 0.15	0.42 ± 0.005
x1 = 0.6989	730.17 ± 0.15	0.392 ± 0.005
x1 = 0.7968	726.09 ± 0.16	0.374 ± 0.005
x1 = 0.8973	722.21 ± 0.16	0.348 ± 0.005
x1 = 1	718.45 ± 0.17	0.33 ± 0.005

CCN(CC)CC [triethylamine] + CCCO
Settings	mass density [kg/m3]	viscosity [mPa·s]
x1 = 0.2007	783.21 ± 0.15	1.189 ± 0.008
x1 = 0.295	775.99 ± 0.15	1.007 ± 0.007
x1 = 0.3226	773.73 ± 0.15	0.954 ± 0.007
x1 = 0.393	767.95 ± 0.15	0.845 ± 0.007
x1 = 0.4852	760.11 ± 0.16	0.719 ± 0.006
x1 = 0.6128	749.28 ± 0.16	0.574 ± 0.006
x1 = 0.7308	739.53 ± 0.16	0.47 ± 0.005
x1 = 0.7637	736.85 ± 0.16	0.444 ± 0.005
x1 = 0.8776	727.89 ± 0.17	0.375 ± 0.005
x1 = 1	718.45 ± 0.17	0.33 ± 0.005
